Assay results reported in patent US11926600B2, “Sulfonylureas and sulfonylthioureas as NLRP3 inhibitors” (Inflazome Limited, priority 2017, dated 2024).

Columns and labels:
NLRP3 [1] = molecular target: T1, NLRP3 (Homo sapiens, UniProt Q96P20); test: Human whole blood IL1β release assay; type: cell-based; design: Plate out 80 μl of whole blood containing 1 μg/ml of LPS; from tissue; host or cells: human whole blood from healthy donors, LPS-primed, nigericin-stimulated; details: LPS 1 μg/ml, nigericin 10 μM, IL-1β AlphaLisa, read-out: HWB IC50
T1 sequence (Q96P20 whole entry): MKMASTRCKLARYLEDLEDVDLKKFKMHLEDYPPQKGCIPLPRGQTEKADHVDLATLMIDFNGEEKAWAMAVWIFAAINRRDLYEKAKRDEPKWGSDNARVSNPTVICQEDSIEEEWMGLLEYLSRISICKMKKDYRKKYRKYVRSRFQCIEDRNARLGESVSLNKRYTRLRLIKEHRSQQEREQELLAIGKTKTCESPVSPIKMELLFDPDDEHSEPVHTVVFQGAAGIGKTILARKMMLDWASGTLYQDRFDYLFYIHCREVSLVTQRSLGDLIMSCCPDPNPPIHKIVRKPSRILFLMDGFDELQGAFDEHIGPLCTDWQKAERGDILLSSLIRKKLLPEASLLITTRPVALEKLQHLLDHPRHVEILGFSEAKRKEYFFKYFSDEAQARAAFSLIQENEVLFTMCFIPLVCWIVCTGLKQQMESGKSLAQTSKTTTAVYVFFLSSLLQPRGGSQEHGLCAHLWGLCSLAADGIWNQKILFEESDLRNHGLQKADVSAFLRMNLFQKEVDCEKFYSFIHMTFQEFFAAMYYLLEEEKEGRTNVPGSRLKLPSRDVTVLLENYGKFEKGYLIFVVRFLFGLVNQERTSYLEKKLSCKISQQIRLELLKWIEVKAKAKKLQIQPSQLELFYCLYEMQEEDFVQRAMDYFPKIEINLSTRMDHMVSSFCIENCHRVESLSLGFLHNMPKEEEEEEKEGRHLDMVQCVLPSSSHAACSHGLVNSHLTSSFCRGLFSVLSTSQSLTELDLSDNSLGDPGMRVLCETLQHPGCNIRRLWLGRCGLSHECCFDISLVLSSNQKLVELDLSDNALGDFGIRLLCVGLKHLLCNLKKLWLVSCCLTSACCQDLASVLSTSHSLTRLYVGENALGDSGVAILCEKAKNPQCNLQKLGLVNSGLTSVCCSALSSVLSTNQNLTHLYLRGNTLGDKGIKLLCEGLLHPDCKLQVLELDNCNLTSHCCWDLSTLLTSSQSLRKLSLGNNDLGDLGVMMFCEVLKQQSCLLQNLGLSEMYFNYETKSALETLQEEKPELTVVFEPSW
Protocol: Human Whole Blood IL1β Release Assay
For systemic delivery, the ability to inhibit NLRP3 when the compounds are present within the bloodstream is of great importance. For this reason, the NLRP3 inhibitory activity of a number of compounds in human whole blood was investigated in accordance with the following protocol.
Human whole blood in Li-heparin tubes was obtained from healthy donors from a volunteer donor panel. • 1. Plate out 80 μl of whole blood containing 1 μg/ml of LPS in 96-well, clear bottom cell culture plate (Corning #3585) • 2. Add 10 μl compound (8 points half-log dilution with 10 μM top dose) or vehicle (DMSO 0.1% FAC) to the appropriate wells • 3. Incubate for 3 hrs at 37° C. 5% CO2 • 4. Add 10 μl Nigericin (Sigma #N7143) (10 μM FAC) to all wells • 5. Incubate for 1 hr at 37° C. 5% CO2 • 6. At the end of the incubation period, spin plates at 300×g for 5 mins to pellet cells and remove 20 μl of supernatant and add to 96-well v-bottom plates for IL-1β analysis (note: these plates containing the supernatants can be stored at −80° C. to be analysed at a later date) • 7. IL-1β was measured according to the manufacturer protocol (Perkin Elmer-AlphaLisa IL-1 Kit AL220F-5000) • 8. IC50 data is fitted to a non-linear regression equation (log inhibitor vs response-variable slope 4-parameters)

NLRP3 [2] = molecular target: T1, NLRP3; test: THP-1 cells pyroptosis assay; type: cell-based; design: Seed THP-1 cells (25,000 cells/well) containing 1.0 μg/ml LPS; host or cells: THP-1 cells, LPS-primed, nigericin-stimulated; details: LPS 1 μg/ml, nigericin 5 μM, resazurin readout
Protocol: THP-1 Cells: Culture and Preparation
The cells were routinely passaged and grown to confluency (˜10^6 cells/ml). On the day of the experiment, THP-1 cells were harvested and resuspended into RPMI medium (without FBS). The cells were then counted and viability (>90%) checked by Trypan blue (Sigma #T8154). […] To this diluted cell solution was added LPS (Sigma #L4524) to give a 1 μg/ml Final Assay Concentration (FAC). 40 μl of the final preparation was aliquoted into each well of a 96-well plate. The plate thus prepared was used for compound screening.
THP-1 Cells Pyroptosis Assay
The following method step-by-step assay was followed for compound screening. • 1. […] Incubate for 3 hrs at 37° C. in 5% CO2 • 4. Add 5 μl nigericin (Sigma #N7143) (FAC 5 μM) to all wells • 5. Incubate for 1 hr at 37° C. and 5% CO2 • 6. At the end of the incubation period, spin plates at 300×g for 3 mins and remove supernatant • 7. Then add 50 μl of resazurin (Sigma #R7017) (FAC 100 μM resazurin in RPMI medium without FBS) and incubate plates for a further 1-2 hrs at 37° C. and 5% CO2 • 8. […] IC50 data is fitted to a non-linear regression equation (log inhibitor vs response-variable slope 4-parameters)

SMILES	IC50 (NLRP3 [1]) [nM]	IC50 (NLRP3 [2]) [nM]
Cc1nc(S(=O)(=O)NC(=O)Nc2c3c(cc4c2CCC4)CCC3)cn1CCO [Example 17, N-((1,2,3,5,6,7-Hexahydro-s-indacen-4-yl)carbamoyl)-1-(2-hydroxyethyl)-2-methyl-1H-imidazole-4-sulfonamide]	800 to 1600	640 to 2560
C[C@H](O)Cn1cnc(S(=O)(=O)NC(=O)Nc2c3c(cc4c2CCC4)CCC3)c1 [Example 2, (S)—N-((1,2,3,5,6,7-Hexahydro-s-indacen-4-yl)carbamoyl)-1-(2-hydroxypropyl)-1H-imidazole-4-sulfonamide]	800 to 1600	160 to 640
CC(C)c1nc(S(=O)(=O)NC(=O)Nc2c3c(cc4c2CCC4)CCC3)cn1C [Example 13, N-((1,2,3,5,6,7-Hexahydro-s-indacen-4-yl)carbamoyl)-2-isopropyl-1-methyl-1H-imidazole-4-sulfonamide]	3200 to 10000	640 to 2560
COc1cc(-c2cc(F)cc(C(C)C)c2NC(=O)NS(=O)(=O)c2cn(C(C)C)cn2)ccn1 [Example 5, N-((4-Fluoro-2-isopropyl-6-(2-methoxypyridin-4-yl)phenyl)carbamoyl)-1-isopropyl-1H-imidazole-4-sulfonamide]	800 to 1600	40 to 160
COc1cc(-c2ccc3c(c2NC(=O)NS(=O)(=O)c2cn(C(C)C)cn2)CCC3)ccn1 [Example 21]	400 to 800	40 to 160
Cn1cnc(S(=O)(=O)NC(=O)Nc2c3c(cc4c2CCC4)CCC3)c1 [Example 12, N-((1,2,3,5,6,7-Hexahydro-s-indacen-4-yl)carbamoyl)-1-methyl-1H-imidazole-4-sulfonamide]		640 to 2560
CC(C)n1cnc(S(=O)(=O)NC(=O)Nc2c(-c3ccnc(C#N)c3)ccc3c2CCC3)c1 [Example 20]	< 400	< 40
Cc1nc(S(=O)(=O)NC(=O)Nc2c3c(cc4c2CCC4)CCC3)cn1CC1CCCO1 (stereo not drawn) [Example 16, N-((1,2,3,5,6,7-Hexahydro-s-indacen-4-yl)carbamoyl)-2-methyl-1-((tetrahydrofuran-2-yl)methyl)-1H-imidazole-4-sulfonamide]	800 to 1600	160 to 640
CC(C)c1cc(F)cc(-c2ccnc(C#N)c2)c1NC(=O)NS(=O)(=O)c1cn(C(C)C)cn1 [Example 4, N-((2-(2-Cyanopyridin-4-yl)-4-fluoro-6-isopropylphenyl)carbamoyl)-1-isopropyl-1H-imidazole-4-sulfonamide]	400 to 800	160 to 640
CC(C)c1cccc(C(C)C)c1NC(=O)NS(=O)(=O)c1cn(C(C)C)cn1 [Example 14, N-((2,6-Diisopropylphenyl)carbamoyl)-1-isopropyl-1H-imidazole-4-sulfonamide]		2560 to 10000
C[C@@H](O)Cn1cnc(S(=O)(=O)NC(=O)Nc2c3c(cc4c2CCC4)CCC3)c1 [Example 1, (R)—N-((1,2,3,5,6,7-Hexahydro-s-indacen-4-yl)carbamoyl)-1-(2-hydroxypropyl)-1H-imidazole-4-sulfonamide]	800 to 1600	160 to 640
CC(C)c1cc(F)cc(-c2cnn(C)c2)c1NC(=O)NS(=O)(=O)c1cn(C(C)C)cn1 [Example 10, N-((4-Fluoro-2-isopropyl-6-(i-methyl-1H-pyrazol-4-yl)phenyl)carbamoyl)-1-isopropyl-1H-imidazole-4-sulfonamide]		2560 to 10000
CCn1cc(S(=O)(=O)NC(=O)Nc2c3c(cc4c2CCC4)CCC3)nc1C [Example 6, 1-Ethyl-N-((1,2,3,5,6,7-hexahydro-s-indacen-4-yl)carbamoyl)-2-methyl-1H-imidazole-4-sulfonamide]	3200 to 10000	160 to 640
CN(C)Cc1c(S(=O)(=O)NC(=O)Nc2c3c(cc4c2CCC4)CCC3)ncn1C [Example 19]	800 to 1600	160 to 640
CC(C)c1ncc(S(=O)(=O)NC(=O)Nc2c3c(cc4c2CCC4)CCC3)n1C [Example 8, N-((1,2,3,5,6,7-Hexahydro-s-indacen-4-yl)carbamoyl)-2-isopropyl-1-methyl-1H-imidazole-5-sulfonamide]		160 to 640
CC(C)n1cnc(S(=O)(=O)NC(=O)Nc2c3c(cc4c2CCC4)CCC3)c1 [Example 15, N-((1,2,3,5,6,7-Hexahydro-s-indacen-4-yl)carbamoyl)-1-isopropyl-1H-imidazole-4-sulfonamide]	1600 to 3200	160 to 640
Cn1ccnc1S(=O)(=O)NC(=O)Nc1c2c(cc3c1CCC3)CCC2 [Example 9, N-((1,2,3,5,6,7-Hexahydro-s-indacen-4-yl)carbamoyl)-1-methyl-1H-imidazole-2-sulfonamide]		2560 to 10000
Cc1nc(S(=O)(=O)NC(=O)Nc2c3c(cc4c2CCC4)CCC3)cn1C(C)C [Example 7, N-((1,2,3,5,6,7-Hexahydro-s-indacen-4-yl)carbamoyl)-1-isopropyl-2-methyl-1H-imidazole-4-sulfonamide]	1600 to 3200	160 to 640
CN(C)CCn1cnc(S(=O)(=O)NC(=O)Nc2c3c(cc4c2CCC4)CCC3)c1 [Example 3, 1-(2-(Dimethylamino)ethyl)-N-((1,2,3,5,6,7-hexahydro-s-indacen-4-yl)carbamoyl)-1H-imidazole-4-sulfonamide]	1600 to 3200	640 to 2560
